In brackets after ≈: the same amount, converted by molar mass. Marks after values point to notes of the source that are not given here.
Experiments:
MRSA-2 biofilms = assay: Calgary Biofilm Device (CBD) assay, MBC/MBEC; conditions: for MRSA-2 MBEC: biofilm eradication; for MBC: Staphylococcus aureus, MRSA, read-out: MRSA-2 MBC
MRSA BAA-1707 biofilms = assay: Calgary Biofilm Device (CBD) assay, MBC/MBEC; conditions: CBD; for MRSA BAA-1707 MBEC: biofilm eradication; for MRSA BAA-1707 MBC: planktonic killing
VRE 700221 = assay: MIC, broth microdilution (CLSI); conditions: 16 to 18 hours at 37° C.
MRSA BAA-1707 = assay: MIC, broth microdilution (CLSI); conditions: 16 to 18 hours at 37° C.; 0.10 = lowest concentration tested
MRSE 35984 = assay: MIC, broth microdilution (CLSI); conditions: 16 to 18 hours at 37° C.
MRSE 35984 biofilms = assay: Calgary Biofilm Device (CBD) assay, MBC/MBEC; conditions: CBD; for MRSE 35984 MBEC: biofilm eradication; for MRSE 35984 MBC: planktonic killing

Row | Compound | IC50 (HeLa cells) [µM] | MRSA BAA-1707 MBEC (MRSA BAA-1707 biofilms) [µM] | VRE 700221 MIC (VRE 700221) | MRSA BAA-1707 MIC (MRSA BAA-1707) | MRSE 35984 MIC (MRSE 35984) | Hemolysis at 200 μM (human red blood cells) [%] | further results
1 | Cc1ccc2nc3c(O)c(Br)cc(Br)c3nc2c1 [52A] | > 100 |  |  |  |  |  | 
2 | CCc1ccc2nc3c(O)c(Br)cc(Br)c3nc2c1 [53A] | > 50 |  |  |  |  |  | 
3 | CCCc1ccc2nc3c(O)c(Br)cc(Br)c3nc2c1 [54A] | > 50 |  |  |  |  |  | 
4 | CC(C)(C)c1ccc2nc3c(O)c(Br)cc(Br)c3nc2c1 [55A] | > 100 |  |  |  |  |  | MRSA-2 MBEC (MRSA-2 biofilms; CBD): 3.13 µM
5 | Cc1cc(C)c2nc3c(Br)cc(Br)c(O)c3nc2c1 [56A] | > 100 | 4.69 |  |  |  |  | 
6 | Cc1cc2nc3c(O)c(Br)cc(Br)c3nc2c(C)c1C [59A] | > 100 |  |  |  |  |  | 
7 | Oc1c(Br)cc(Br)c2nc3cc(Oc4ccccc4)ccc3nc12 [63A] | > 100 | 2.35 | 0.2 µM | 0.075 µM | 0.1 µM |  | 
8 | CCN(CC)c1ccc2nc3c(O)c(Br)cc(Br)c3nc2c1Br [64A] | > 100 | 4.69 |  |  |  |  | 
9 | Cc1ccc2nc3c(O)ccc(Br)c3nc2c1 [66A] | > 100 |  |  |  |  |  | 
10 | CC1=C(C)C(=O)C(COC(=O)OCOc2c(Br)cc(Br)c3nc4cc(Cl)ccc4nc23)=C(C)C1=O [87A] | > 100 | 12.5 |  | 0.15 µM |  | 2.7 | 
11 | N#CC(C#N)=NNc1cccc(Cl)c1 [CCCP, reference compound] |  |  |  |  |  |  | MRSE 35984 MBEC (MRSE 35984 biofilms): 93.8 µM; MRSE 35984 MBC (MRSE 35984 biofilms): 31.3 µM; MRSA-2 MBEC (MRSA-2 biofilms; CBD): 1000 µM; MRSA-2 MBC (MRSA-2 biofilms; CBD, planktonic killing): 31.3 µM
12 | CCCc1ccc2nc3c(O)c(Br)cc(Br)c3nc2c1 [Compound 54A] |  | 75 | 3.13 µM | 0.1^b μM | 0.15^a μM | 2.1 | MRSA BAA-1707 MBC (MRSA BAA-1707 biofilms): 37.5 µM; MRSE 35984 MBEC (MRSE 35984 biofilms): 37.5 µM; MRSE 35984 MBC (MRSE 35984 biofilms): 25 µM
13 | Cc1cc2nc3c(O)c(Br)cc(Br)c3nc2c(C)c1C [Compound 59A] |  | 75 |  | 0.59^a μM | 0.1^b μM | 1.3 | MRSA BAA-1707 MBC (MRSA BAA-1707 biofilms): 150 µM; MRSE 35984 MBEC (MRSE 35984 biofilms): 5 µM; MRSE 35984 MBC (MRSE 35984 biofilms): 25 µM
14 | COCCOCCOCC(=O)Oc1c(Br)cc(Br)c2nc3ccccc3nc12 [Compound 75A] | > 100 | 75 | 3.13 µM | 0.59^a μM |  | 1.2 | MRSA BAA-1707 MBC (MRSA BAA-1707 biofilms): 18.8 µM; MRSE 35984 MBEC (MRSE 35984 biofilms): 37.5 µM; MRSE 35984 MBC (MRSE 35984 biofilms): 9.38 µM
15 | COCCOCCOCCOCCOC(=O)Oc1c(Br)cc(Br)c2nc3cc(Cl)ccc3nc12 [Compound 77A] | > 100 |  | 0.1^b μM | 0.0005^a μM | 0.1^b μM | 1.1 | MRSE 35984 MBEC (MRSE 35984 biofilms): 18.8 µM; MRSE 35984 MBC (MRSE 35984 biofilms): 9.38 µM
16 | O=C(OCCOCCOCCOCCO)OCOc1c(Br)cc(Br)c2nc3ccccc3nc12 [Compound 82A] | > 100 |  | >100 µM | >100 µM | >100 µM | 2.7 | 
17 | O=C(OCCSSCCOC(=O)c1ccccc1)OCOc1c(Br)cc(Br)c2nc3ccccc3nc12 [Compound 85A] | > 100 |  | >100 µM | >100 µM | >100 µM | 1.3 | 
18 | C[C@H]1c2cccc(O)c2C(=O)C2=C(O)[C@]3(O)C(=O)C(C(N)=O)=C(O)[C@@H](N(C)C)[C@@H]3[C@@H](O)[C@@H]21 [Doxycycline] |  |  |  |  |  |  | MRSA-2 MBEC (MRSA-2 biofilms; CBD): 46.9 µM; MBC (MRSA-2 biofilms): 2 µM (≈ 0.889 µg/mL)
19 | NC(=O)c1cnccn1 [Pyrazinamide] |  |  |  |  |  |  | MRSA-2 MBEC (MRSA-2 biofilms; CBD): >2000/>2000 μM; MBC (MRSA-2 biofilms): > 2000 µM
